Drawing on PubChem BioAssay AID652030 (The Scripps Research Institute Molecular Screening Center, 2013), this text covers inhibition for 17 compounds.

Common to all, as to assay: inhibitor selectivity across mouse and human LYPLA2, LYPLA1 – cell lysate, gel-based ABPP, FP-Rh fluorescence, mouse brain membrane proteome, selectivity assay for LYPLA2 selective inhibitor project, late-stage follow-up (AID 652030)
Assay [1] addresses Acyl-protein thioesterase 2 (Mus musculus) (UniProt Q9WTL7). As to conditions: emLYPLA2, at 10 µM, active compounds read high.
In assay [2] the target is Acyl-protein thioesterase 2 (Homo sapiens) (UniProt O95372). As to conditions: rhLYPLA2, at 10 µM, active compounds read high.
Assay [3] has as its target Acyl-protein thioesterase 1 (Mus musculus) (UniProt P97823). As to conditions: emLYPLA1, at 10 µM, active compounds read high.

The source made the active and inactive calls.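 The calls were made as follows: active = inhibition of 30% or more against both LYPLA2 panels while inhibition against LYPLA1 stays below 30%; inactive = under 30% on either LYPLA2 panel, or 30%+ on LYPLA1.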

Chain of Acyl-protein thioesterase 2 (Homo sapiens) (O95372 whole entry, looked up): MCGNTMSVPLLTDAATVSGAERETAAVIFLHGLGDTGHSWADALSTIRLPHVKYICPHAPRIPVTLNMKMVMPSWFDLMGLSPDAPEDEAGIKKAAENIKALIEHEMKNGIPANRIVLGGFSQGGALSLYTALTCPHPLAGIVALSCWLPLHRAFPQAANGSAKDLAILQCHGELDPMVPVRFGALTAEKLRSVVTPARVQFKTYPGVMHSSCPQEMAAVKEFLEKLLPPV

Regarding `COc1ccc(-c2noc(CCC(=O)N3CCN(c4cccc(C(F)(F)F)c4)CC3)n2)cc1`, the results for the inhibition in assay [1], in assay [2] and in assay [3] were 14% (inactive), 2% (inactive) and 1% (inactive), respectively.
For the compound `COc1ccc(OC)c(-c2cc(C(=O)Nc3c(C)nn(Cc4ccccc4C)c3C)no2)c1`, the inhibition in assay [1] was 0% (inactive); in assay [2], 8% (inactive); in assay [3], 6% (inactive).
On to `CON=Cc1ccc(N2CCN(C(=O)c3cccc(C(F)(F)F)c3)CC2)c([N+](=O)[O-])c1`, for which the inhibition in assay [1], in assay [2] and in assay [3] was 14% (inactive) throughout.
As to `COc1ccc2c(c1)C(=O)[C@H](O)[C@@H](c1ccc(OC)c(Br)c1)O2`, the values for the inhibition in assay [1], in assay [2] and in assay [3] were 55%, 47% and 23% (inactive), respectively.
The corresponding values for `CCCCCCCCCC(=O)Nn1cnc2ccccc2c1=O` are 12% (inactive), 4% (inactive) and 28% (inactive).
For `COc1cc(C2Oc3cc(C4Oc5cc(O)cc(O)c5C(=O)C4O)ccc3OC2CO)ccc1O` (stereo unspecified), the inhibition in assay [1] was 19% (inactive); in assay [2], 14% (inactive); in assay [3] it was 10% (inactive).
The corresponding values for `COc1cc(/C=C2\SC(=O)N(CC(=O)Nc3cccc(C)c3)C2=O)ccc1OC(C)C(=O)O` (stereo unspecified) are 37%, 58% and 28% (inactive).
For `COc1ccc(/C=C2\SC(=O)N(CC(=O)Nc3ccc(F)cc3)C2=O)cc1O`, the inhibition was 24% (inactive) in assay [1], 16% (inactive) in assay [2] and 15% (inactive) in assay [3].
For the compound `COc1ccc(N2CCN(C(=O)C3CCC(Cn4c(=S)[nH]c5ccccc5c4=O)CC3)CC2)cc1` (stereo unspecified), the inhibition in assay [1] was 44%; in assay [2], 47%; in assay [3] it was 16% (inactive).
For `Cc1ccccc1NC(=O)CN1C(=O)S/C(=C\c2cccn2-c2cccc(C(=O)O)c2)C1=O`, the results for the inhibition in assay [1], in assay [2] and in assay [3] were 13% (inactive), 4% (inactive) and 0% (inactive), respectively.
With `Cc1ccc(Oc2ccc3c(c2)C(=O)N(c2ccc(S(=O)(=O)Nc4nccs4)cc2)C3=O)cc1`, the values for the inhibition in assay [1], in assay [2] and in assay [3] were 6% (inactive), 9% (inactive) and 14% (inactive), respectively.
As for `COc1ccc(-n2nc(C(=O)NCC(=O)N3CCN(Cc4ccc5c(c4)OCO5)CC3)c3ccccc3c2=O)cc1OC`, the values for the inhibition in assay [1], in assay [2] and in assay [3] were 23% (inactive), 26% (inactive) and 0% (inactive), respectively.
The corresponding values for `Cc1cccc(N2CCN(C(=O)Cc3ccc(-n4c(=O)[nH]c5ccsc5c4=O)cc3)CC2)c1C` are 0% (inactive), 4% (inactive) and 14% (inactive).
Regarding `COc1ccc(N2CCN(C(=O)c3cc4c(s3)-c3ccccc3S(=O)(=O)C4)CC2)cc1`, the values for the inhibition in assay [1], in assay [2] and in assay [3] were 74%, 79% and 25% (inactive), respectively.
Turning to `O=C1Nc2ccc([N+](=O)[O-])cc2OC1CCN1CCN(Cc2ccc3c(c2)OCO3)CC1` (stereo unspecified), the inhibition in assay [1] is 21% (inactive); in assay [2], 9% (inactive); in assay [3], 27% (inactive).
For `O=C(O)c1ccc(CN2C(=O)c3ccc(Oc4ccc([N+](=O)[O-])cc4)cc3C2=O)cc1`, the inhibition is 4% (inactive) in assay [1], 7% (inactive) in assay [2] and 6% (inactive) in assay [3].
In the case of `COc1cc(C=NNC(=O)C(NC(=O)c2ccccc2)c2n[nH]c(=O)c3ccccc23)ccc1OCC(N)=O` (stereo unspecified), the inhibition in assay [1] was 3% (inactive); in assay [2], 9% (inactive); in assay [3], 14% (inactive).
